Read-outs that look alike come from different tables or passages of the source.
Legend:
[1] = system: SARS-CoV-2 isolate Australia/VIC01/2020; experiment: SARS-CoV-2 infected Vero/hSLAM cells treated after infection, viral RNA by real-time RT-PCR; format: cell-based
[2] = system: Vero/hSLAM cells; settings: for toxicity at any of the time points tested: sample wells or parallel drug alone samples, 5 μM
[3] = system: SARS-CoV-2; experiment: Prophylactic pre-treatment of Vero/hSLAM cells before SARS-CoV-2 infection, viral load by real-time PCR of supernatant; format: cell-based
Experimental: Vero/hSLAM cells were pre-treated with DMSO, ivermectin or Moxidectin at the indicated concentrations for 2 h prior to infection with SARS-CoV-2 (MOI=0.01) for 2 h in the presence of DMSO or drugs. Samples were washed post-adsorption and incubated in the fresh media containing DMSO or drugs for 48 h before quantitation of viral load using real-time PCR of supernatant. The results shown in FIG. 5 represent mean±SD (n=6) relative to DMSO alone. […] Average IC50 values for CALU-3 cells compared to Vero/hSLAM cells assayed under the same conditions are shown (Table, right, n=independent experiments).

[4] = system: seasonal coronavirus 229E; experiment: Huh-7 cells infected with 229E, treated after infection, viral load by real-time PCR of supernatant; format: cell-based; settings: Huh-7, 229E MOI 0.01, 48 h post infection, read-out: IC50 (FIG. 6, panels A/B)
Experimental: Huh-7 cells were infected with 229E (MOI=0.01) for 2 h prior to addition of vehicle (DMSO), Ivermectin (FIG. 6, panel A) or Moxidectin (FIG. 6, panel B) at the indicated concentrations. Samples were taken 48 h post infection for quantitation of viral load using real-time PCR of supernatant. Results represent mean±SD (n=6) relative to DMSO alone.

[5] = system: seasonal coronavirus 229E; experiment: Prophylactic pre-treatment of Huh-7 cells before 229E infection, viral load by real-time PCR; format: cell-based; settings: Huh-7 pre-treated 2 h, 229E MOI 0.01, 48 h; read-out: IC50 (FIG. 6, panel C), prophylactic
Experimental: For assessment of prophylactic potential Huh-7 cells were pre-treated with DMSO or ivermectin at the indicated concentrations for 2 h prior to infection with 229E (MOI=0.01) for 2 h in the presence of DMSO or ivermectin (FIG. 6, panel C). Samples (n=5) were washed post-adsorption and incubated in the fresh media containing DMSO or ivermectin for 48 h before quantitation of viral load as above.

[6] = system: SARS-CoV-2 clinical isolate Australia/VIC01/2020; experiment: SARS-CoV-2 infected CALU-3 (human lung) cells, viral load by real-time PCR of supernatant; format: cell-based
Experimental: CALU-3 (human lung) cells were infected with SARS-CoV-2 clinical isolate Australia/VIC01/2020 (MOI=0.01) for 2 h prior to addition of vehicle (DMSO) or Ivermectin at the indicated concentrations indicated in FIG. 3. Samples were taken 24 h post infection for quantitation of viral load using real-time PCR of supernatant. The results illustrated in FIG. 3 represent mean±SD (n=6) relative to DMSO alone.

[7] = 48 h, compared to vehicle DMSO, Vero/hSLAM, E gene, concentration not restated (5 μM in FIG. 2, panel A)
[8] = 5 μM, 24 h, MOI 0.1, Vero/hSLAM, compared to vehicle DMSO

`CO/N=C1\C[C@]2(C[C@@H]3C[C@@H](C/C=C(\C)C[C@@H](C)/C=C/C=C4\CO[C@@H]5[C@H](O)C(C)=C[C@@H](C(=O)O3)[C@]45O)O2)O[C@H](/C(C)=C/C(C)C)[C@H]1C` [moxidectin] was tested, and the “reduction in viral RNA present in the supernatant (released virions)” value (“reduction in viral RNA present” for short) [1, 7] was 99.9%, the IC50 ([1]; Severe acute respiratory syndrome coronavirus 2, 24 h, supernatant, E gene, MOI 0.01, Vero/hSLAM, read-out: Calculated IC50 (FIG. 2, panel B)) was 1.3 µM and the IC50 ([1]; Severe acute respiratory syndrome coronavirus 2, 48 h, supernatant, E gene, MOI 0.01, Vero/hSLAM, read-out: Calculated IC50 (FIG. 2, panel C)) was 1.3 µM. The IC50 ([1]; Severe acute respiratory syndrome coronavirus 2, 72 h, supernatant, E gene, MOI 0.01, Vero/hSLAM, read-out: Calculated IC50 (FIG. 2, panel D)) was 2.4 µM, the “toxicity at any of the time points tested” value [2] was “No toxicity” and the IC50 ([3]; Severe acute respiratory syndrome coronavirus 2, Vero, read-out: IC50 +/− SEM (n*), treated prophylactically) was 1.66 µM. The IC50 ([3]; Severe acute respiratory syndrome coronavirus 2, pre-treated 2 h, MOI 0.01, 48 h, supernatant, Vero/hSLAM, read-out: IC50 (FIG. 5), prophylactic) was 1.8 µM and the IC50 ([4]; Human coronavirus 229E) was 0.24 µM.
With ivermectin the “reduction in cell-associated viral RNA (unreleased and unpackaged virions)” value [1, 8] was 99.8%, the “reduction in viral RNA present” value [1, 8] was 93% and the “reduction in viral RNA in both supernatant and cell pellets” value ([1]; 5 μM, 48 h, E gene, Vero/hSLAM) was over 5000. The “reduction in viral RNA (equating to the >5000 reduction)” value ([1]; 5 μM, 48 h, supernatant and cell pellets, Vero/hSLAM) was 99.98%, the “further reduction in viral RNA at 72 h” value ([1]; 5 μM, 72 h versus 48 h, MOI 0.1, Vero/hSLAM) was “no further reduction” and the IC50 ([1]; 24 h, supernatant, E gene, MOI 0.01, Vero/hSLAM, read-out: Calculated IC50 (FIG. 2, panel B)) was 1.4 µM. For the same compound, the “reduction in viral RNA present” value [1, 7] was 99.5%, the IC50 ([1]; 48 h, supernatant, E gene, MOI 0.01, Vero/hSLAM, read-out: Calculated IC50 (FIG. 2, panel C)) was 2.2 µM and the IC50 ([1]; 72 h, supernatant, E gene, MOI 0.01, Vero/hSLAM, read-out: Calculated IC50 (FIG. 2, panel D)) was 3.1 µM. For the same compound, the IC50 ([1]; E gene, 48 h, treated 2 h post infection, MOI 0.1, Vero/hSLAM, panels C/D = supernatant and cell pellets, read-out: IC50 of ivermectin treatment (FIG. 1, panel C)) was 2.8 µM, the IC50 ([1]; E gene, 48 h, treated 2 h post infection, MOI 0.1, Vero/hSLAM, panels C/D = supernatant and cell pellets, read-out: IC50 of ivermectin treatment (FIG. 1, panel D)) was 2.4 µM and the IC50 ([1]; RdRp gene primers, 48 h, MOI 0.1, Vero/hSLAM, panels E/F = released (supernatant) and cell-associated virus, read-out: IC50 of ivermectin treatment (FIG. 1, panel E)) was 2.5 µM. For the same compound, the IC50 ([1]; RdRp gene primers, 48 h, MOI 0.1, Vero/hSLAM, panels E/F = released (supernatant) and cell-associated virus, read-out: IC50 of ivermectin treatment (FIG. 1, panel F)) was 2.2 µM, the IC50 ([1]; average of independent experiments, Vero/hSLAM assayed under the same conditions as CALU-3, read-out: IC50 +/− SEM (n*), Vero/hSLAM) was 2.37 µM and the IC50 [5] was 2.06 µM. The “toxicity at any of the time points tested” value [2] was “No toxicity”, the “toxicity at any of the concentrations tested” value ([2]; serial dilutions, 48 h) was “no toxicity” and the IC50 ([6]; CALU-3, 24 h post infection, supernatant, MOI 0.01, read-out: IC50 (FIG. 3)) was 0.42 µM. The IC50 ([6]; average of independent experiments, CALU-3, read-out: IC50 +/− SEM (n*), CALU-3) was 0.41 µM, the IC50 ([3]; average of independent experiments, Vero/hSLAM, read-out: IC50 +/− SEM (n*), treated prophylactically) was 1.73 µM and the IC50 ([3]; pre-treated 2 h, MOI 0.01, 48 h, supernatant, Vero/hSLAM, read-out: IC50 (FIG. 5), prophylactic) was 1.6 µM. The IC50 [4] was 0.18 µM.

Reference: patent US11364256B2, “Viral inhibition” (Monash University, priority 2020, dated 2022)
